Results published in patent US5486516A, “Furopyrimidine derivatives” (DowElanco, priority 1993, dated 1996).

Experiments:
[1] = system: Pyricularia oryzae (rice blast); test: whole plant or invertebrate; format: in vivo; settings: foliar, read-out: RICE BLAST control rating
[2] = system: Southern corn rootworm (Diabrotica undecimpuctata howardi Barber); test: Mite/insect screen, corn rootworm; format: in vivo; settings: soil; for mortality at 12 ppm / mortality at 24 ppm: Diabrotica, read-out: CRW results (percent mortality); for mortality at 12 ppm: CRW rate 12.00 ppm
How it was run: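 Five 2-3 instar larvae per cup were placed on sandy soil (15 g, with presoaked corn seed) treated 6–12 h earlier with 1 mL test solution, an emulsified acetone/alcohol formulation diluted in water. Cups kept at 23° C; mortality and phytotoxicity assessed as percent after standard exposures.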

[3] = system: southern armyworm (Spodopetra eridania Cramer); test: Mite/insect screen, Southern armyworm; format: in vivo; settings: sprayed leaves; for mortality at 200 ppm / mortality at 400 ppm: Spodoptera eridania, read-out: SAW results (percent mortality); for mortality at 200 ppm: rate 200 ppm
How it was run: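 Southern armyworm larvae placed in Petri dishes with two excised squash leaves that had been sprayed to runoff (10 psi) with emulsified compound and air-dried for 1 h. Mortality in percent recorded after a standard exposure period; formulation acetone/alcohol plus Toximul R and S, water-diluted.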

[4] = system: Twospotted spider mites (Tetranychus urticae Koch); test: Mite/insect screen, twospotted spider mites; format: in vivo; settings: sprayed leaves; for mortality at 200 ppm / mortality at 400 ppm: Tetranychus urticae, read-out: SM results (percent mortality); for mortality at 200 ppm: rate 200 ppm
How it was run: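 Percent mortality, along with phytotoxicity, was read after standard exposure periods. Beforehand, mites established on both surfaces of squash cotyledons received a runoff spray (10 psi) of water-diluted compound formulated in acetone/alcohol with sulfonate/nonionic emulsifiers.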

[5] = system: melon aphids (Aphis gossvpii Glover); test: Mite/insect screen, melon aphids; format: in vivo; settings: sprayed leaves; for mortality at 200 ppm / mortality at 400 ppm: Aphis, read-out: MA results (percent mortality); for mortality at 200 ppm: rate 200 ppm
How it was run: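 Percent mortality of melon aphids was assessed after standard exposure periods. Infested squash cotyledons had been sprayed on both leaf surfaces until runoff at 10 psi with water-diluted test solutions. Compounds were formulated in acetone/alcohol (50:50) containing emulsifiers.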

[6] = system: Puccinia recondita tritici (leaf rust); test: Plant pathology screen (Test 1), leaf rust on wheat; settings: in Triticum aestivum, foliar, read-out: LEAF RUST control rating
[7] = system: Pseudoperonospora cubensis (downy mildew); test: Plant pathology screen (Test 1), downy mildew on squash; settings: foliar, read-out: DOWN MDEW control rating
[8] = system: Erysiphe graminis tritici (powdery mildew); test: Plant pathology screen (Test 1), powdery mildew on wheat; settings: Blumeria graminis, in Triticum aestivum, foliar, read-out: POWD MDEW control rating
[9] = system: Botrytis cinerea (gray mold); test: Plant pathology screen (Test 1), gray mold on grape berries; settings: read-out: GRAY MOLD control rating
Procedure: This screen was used to evaluate the efficacy of the present compounds against a variety of different organisms that cause plant diseases.
The test compounds were formulated for application by dissolving 50 mg of the compound into 1.25 ml of solvent. The solvent was prepared by mixing 50 ml of "Tween 20" (polyoxyethylene (20) sorbitan monolaurate emulsifier) with 475 ml of acetone and 475 ml of ethanol. The solvent/compound solution was diluted to 125 ml with deionized water. The resulting formulation contains 400 ppm test chemical. Lower concentrations were obtained by serial dilution with the solvent-surfactant mixture.
The formulated test compounds were applied by foliar spray. The following plant pathogens and their corresponding plants were employed.
The formulated technical compounds were sprayed on all foliar surfaces of the host plants (or cut berry) to past run-off. Single pots of each host plant were placed on raised, revolving pedestals in a fume hood. Test solutions were sprayed on all foliar surfaces. All treatments were allowed to dry and the plants were inoculated with the appropriate pathogens within 2-4 hours.
The effectiveness of test compounds in controlling disease was rated using the following scale.

Row | SMILES | pest or weed control at 400 µg/mL [1] [%] | mortality at 12 ppm [2] [%] | mortality at 24 ppm ([2]; CRW rate 24.00 ppm) [%] | mortality at 200 ppm [3] [%] | mortality at 400 ppm ([3]; rate 400 ppm) [%] | mortality at 200 ppm [4] [%] | mortality at 400 ppm ([4]; rate 400 ppm) [%] | mortality at 200 ppm [5] [%] | mortality at 400 ppm ([5]; rate 400 ppm) [%] | pest or weed control at 400 µg/mL [6] [%] | pest or weed control at 400 µg/mL [7] [%] | pest or weed control at 400 µg/mL [8] [%] | pest or weed control at 400 µg/mL [9] [%] | CRW results (percent mortality) ([2]; CRW rate 24.00 ppm) [%] | SAW results (percent mortality) ([3]; rate 400 ppm) [%] | SM results (percent mortality) ([4]; rate 400 ppm) [%] | MA results (percent mortality) ([5]; rate 400 ppm) [%]
1 | Cc1oc2ncnc(Sc3ccc(F)cc3)c2c1C [Example 56, 5,6-dimethyl-4-[(4-fluorophenyl)thio]furo[2,3-d]pyrimidine] | 20 to 89 | 0 | 0 | 0 | 0 | 0 | 0 | 0 | 0 | 20 to 89 | 0 to 19 | 20 to 89 | 0 to 19 | – | – | – | –
2 | COc1ccc(CCNc2ncnc3occc23)cc1 [Example 15, N-[2-(4-methyloxyphenyl)ethyl]furo[2,3-d]pyrimidin-4-amine] | 20 to 89 | 0 | 0 | 0 | 0 | 0 | 0 | 0 | 0 | 90 to 100 | 90 to 100 | 20 to 89 | 0 to 19 | – | – | – | –
3 | Cc1oc2ncn(CCc3cccc(C(F)(F)F)c3)c(=N)c2c1C [Example 81, 3-[2-[3-(trifluoromethyl)phenyl]ethyl]-5,6-dimethylfuro[2,3-d]pyrimidin-4(3H)-imine] | 90 to 100 | – | 0 | – | 0 | – | 0 | – | 0 | 90 to 100 | 90 to 100 | 20 to 89 | 0 to 19 | 0 | 0 | 0 | 0
4 | Cc1ccccc1Oc1ncnc2oc(C)c(C)c12 [Example 29, 5,6-dimethyl-4-(2-methylphenoxy)furo[2,3-d]pyrimidine] | 20 to 89 | 0 | 0 | 0 | 0 | 0 | 0 | 0 | 0 | 20 to 89 | 20 to 89 | 20 to 89 | 0 to 19 | – | – | – | –
5 | Cc1oc2ncnc(Oc3ccccc3F)c2c1C [Example 66, 4-(2-fluorophenoxy)-5,6-dimethylfuro[2,3-d]pyrimidine] | 0 to 19 | 0 | 0 | 0 | 0 | 0 | 0 | 0 | 0 | 20 to 89 | 90 to 100 | 90 to 100 | 0 to 19 | – | – | – | –
6 | Cc1oc2ncnc(NCCc3ccc(OC(F)(F)C(F)F)cc3)c2c1C [Example 47, N-[2-[4-(1,1,2,2-tetrafluoroethoxy)phenyl]ethyl]-5,6-dimethylfuro[2,3-d]pyrimidin-4-amine] | 90 to 100 | 100 | 80 | 100 | 0 | 90 | 100 | 100 | 100 | 90 to 100 | 90 to 100 | 20 to 89 | 0 to 19 | – | – | – | –
